Test results published in the NIST ThermoML archive (doi:10.1016/j.jct.2016.12.015).

Test: molar heat capacity at constant pressure
Details: 101.33 kPa, Crystal, Small (less than 1 g) adiabatic calorimetry

C[C@H]1C[C@@H]2[C@H]([C@@H](O)C[C@@]3(C)[C@H]2CC[C@]3(O)C(=O)CO)[C@@]2(C)C=CC(=O)C=C12 [Methylprednisolone]
Details	molar heat capacity at constant pressure [J/K/mol]
142.74 K	233.6
146.27 K	238.8
149.79 K	244.2
150 K	245
153.3 K	250
156.82 K	254.9
160 K	260.2
160.33 K	260.9
163.83 K	266.4
167.33 K	271.7
170 K	275.3
170.82 K	276.8
174.31 K	282.2
177.79 K	287.2
180 K	290.3
181.26 K	292.5
184.73 K	297.4
188.19 K	302.5
190 K	305.3
191.65 K	307.8
195.06 K	312.7
198.5 K	318.2
200 K	320.4
201.93 K	323.6
205.36 K	328.5
208.8 K	333.1
210 K	335.6
212.23 K	338.2
215.66 K	343.7
219.09 K	349.3
220 K	350.7
222.53 K	355
225.95 K	361
229.38 K	364.2
230 K	365.9
232.82 K	370.1
236.24 K	375.2
239.67 K	380.7
240 K	381.1
243.1 K	385.9
246.53 K	391.1
249.92 K	396.2
250 K	396.3
253.35 K	401.5
256.77 K	406.9
260 K	411.6
260.19 K	412
263.6 K	417.5
267.02 K	422.9
270 K	427.1
270.43 K	428.4
273.84 K	432.9
277.25 K	438.4
280 K	442.9
280.64 K	443.7
284.03 K	449
287.42 K	454
290 K	458.9
290.79 K	460.1
294.15 K	465.4
297.51 K	471.2
298.15 K	472.1
300 K	475.1
300.85 K	475.9
304.09 K	481.9
307.42 K	487.8
310 K	491.2
310.76 K	492.9
314.09 K	498.1
317.42 K	503
320 K	507
320.76 K	508
324.1 K	513.3
327.44 K	518.2
330 K	522.5
330.78 K	523.9
334.13 K	529
337.48 K	534
340 K	538.4
340.82 K	539.6
344.16 K	545.9
347.5 K	551.7
350 K	556.8
350.09 K	556.9
